Source: patent US4885309A, “Therapeutic treatment of leukotriene-mediated dermal inflammation by topical administration of 3,4-dihydro-2H-1-benzopyran derivatives” (Hoffmann-La Roche Inc., priority 1986, dated 1989)

What was measured:
[1] = system: leukotriene-induced vascular permeability; assay: Inhibition of leukotriene (LTD4)-induced vascular permeability by topical test compound, guinea pigs; format: in vivo, male guinea pigs (Hartley strain); settings: for % Inhibition (± S.E.M.): guinea pig, topical 4 hours prior to LTD4 injection
Method: (§1) The test compound was administered to the same number of animals as before by applying one drop (50 microliters) directly on the skin surface of a 10% by weight solution of the test compound in dimethylsulfoxide (DMSO). This amounted to 5 mg of test compound per site of application. […] Evans blue dye (0.5% in saline) was then injected intravenously into each animal, using the same procedure describd for Part (a), above. After thirty minutes the animals were sacrificed, the dorsal skins were removed, and the extent of dye migration was measured as above. The effectiveness of the test compound was calculated as the Percent (%) Inhibition of Leukotriene-Induced Permeability, as follows: [formula] where MWS=mean wheal size.

[2] = system: leukotriene-induced vascular permeability; assay: Inhibition of leukotriene (LTD4)-induced vascular permeability by topical test compound, rats; format: in vivo, male rats (Sprague-Dawley strain); settings: for % Inhibition (± S.E.M.): rat, topical 4 hours prior to LTD4 injection
Method: as §1

[3] = system: arachidonic acid-induced ear edema; assay: Mouse ear edema test (in vivo), arachidonic acid-induced; design: species or system CD-1 male mice; settings: for % Inhibition (± S.E.M.): eight mice
From the text: Dermatol. 80: 48 (1983), and Humes, Opas and Bonney, "Arachidonic Acid Metabolites in Mouse Ear Edema". Advances in Inflammation Research, 11: 57 (1986).
CD-1 male mice weighing 15 to 25 g were employed, and they were designated as follows: (1) Control Group, in which no arachidonic acid or test compound were to be applied, (2) Arachidonic Acid-Treated Group, in which no test compound was to be applied, and (3) Treated Group, in which the test compound was to be applied first, followed by the application of arachidonic acid. The test compound was again racemic-6-acetyl-7-[5-(4-acetyl-3-hydroxy-2-propylphenoxy)pentyloxy]-3,4-dihydro-2H-1-benzopyran-2-carboxylic acid.
In the case of the Group (3) animals, the test compound, dissolved in acetone, was applied to the dorsal surface of the right ear of the mouse with a 25-microliter pipettor, with the dose of the test compound being varied as shown in Tables 3 and 4. After 0.5 hour in some cases and 4 hours in others, the arachidonic acid was topically applied in the same manner as above to the pretreated ear areas. In each case of arachidonic acid application, an amount of 0.5 mg dissolved in 25 microliters of acetone was used. Application was made topically to the dorsal surface of the right ear with a 25-microliter pipettor. After one hour, the mice were sacrificed by carbon dioxide inhalation. A 6 mm-diameter standard biopsy punch was used to obtain a uniform tissue sample from the ear of each mouse so treated, and the tissue samples were weighed to the nearest 0.1 mg. The percent inhibition of ear edema formation was calculated as follows: [formula]

**Q.** For CCCc1c(OCCCCCOc2cc3c(cc2C(C)=O)CCC(C(=O)O)O3)ccc(C(C)=O)c1O (racemic) [test compound, 6-acetyl-7-[5-(4-acetyl-3-hydroxy-2-propylphenoxy)pentyloxy]-3,4-dihydro-2H-1-benzopyran-2-carboxylic acid], which “% Inhibition (± S.E.M.)” value ([1]; 5.0% in DMSO) is on record?
**A.** 11 ± 3%

**Q.** And the “% Inhibition (± S.E.M.)” value ([1]; 10.0% in DMSO)?
**A.** 33 ± 3%

**Q.** And the “% Inhibition (± S.E.M.)” value ([1]; 15.0% in DMSO)?
**A.** 43 ± 4%

**Q.** And the “% Inhibition (± S.E.M.)” value ([1]; 25.0% in DMSO)?
**A.** 49 ± 4%

**Q.** What about the “inhibition of leukotriene-induced vascular permeability” value ([1]; guinea pigs, 5 mg per site (10% in DMSO) topical, time variation) of the same compound?
**A.** inhibited leukotriene-induced vascular permeability

**Q.** What about the “time of peak activity (inhibition of leukotriene-induced vascular permeability)” value ([1]; guinea pigs, 5 mg per site (10% in DMSO) topical, LTD4 0.4 microgram per site) of the same compound?
**A.** 2 to 4 h

**Q.** What about the “inhibition of leukotriene-induced vascular permeability increase, variation of concentration” value ([1]; guinea pigs, topical 4 hours prior to leukotriene injection) of the same compound?
**A.** inhibited the leukotriene-induced vascular permeability increase in a dose-related manner

**Q.** What about the “% Inhibition (± S.E.M.)” value ([2]; 2.5% in DMSO) of the same compound?
**A.** 28 ± 4%

**Q.** What about the “% Inhibition (± S.E.M.)” value ([2]; 5.0% in DMSO) of the same compound?
**A.** 50 ± 6%

**Q.** And the “% Inhibition (± S.E.M.)” value ([2]; 10.0% in DMSO)?
**A.** 59 ± 6%

**Q.** What about the “% Inhibition (± S.E.M.)” value ([2]; 25.0% in DMSO) of the same compound?
**A.** 67 ± 5%

**Q.** And the “time of peak activity (inhibition of leukotriene-induced vascular permeability)” value ([2]; rats, relative to guinea pigs (2-4 hours), 5 mg per site (10% in DMSO) topical, LTD4 0.4 microgram per site)?
**A.** somewhat later

**Q.** And the “inhibition of leukotriene-induced vascular permeability” value ([2]; rats, 5 mg per site (10% in DMSO) topical, time variation)?
**A.** inhibited leukotriene-induced vascular permeability

**Q.** And the “inhibition of leukotriene-induced vascular permeability increase, variation of concentration” value ([2]; rats, topical 4 hours prior to leukotriene injection)?
**A.** inhibited the leukotriene-induced vascular permeability increase in a dose-related manner

**Q.** What about the “% Inhibition (± S.E.M.)” value ([3]; 0.5 Hour Pretreatment, 0.1 mg applied topically in 25 μl acetone) of the same compound?
**A.** 19 ± 10%

**Q.** And the “% Inhibition (± S.E.M.)” value ([3]; 0.5 Hour Pretreatment, 0.2 mg applied topically in 25 μl acetone)?
**A.** 21 ± 12%

**Q.** And the “% Inhibition (± S.E.M.)” value ([3]; 0.5 Hour Pretreatment, 0.5 mg applied topically in 25 μl acetone)?
**A.** 42 ± 12%

**Q.** What about the “% Inhibition (± S.E.M.)” value ([3]; 0.5 Hour Pretreatment, 1.0 mg applied topically in 25 μl acetone) of the same compound?
**A.** 63 ± 4%

**Q.** And the “% Inhibition (± S.E.M.)” value ([3]; 0.5 Hour Pretreatment, 2.0 mg applied topically in 25 μl acetone)?
**A.** 65 ± 1%

**Q.** What about the “% Inhibition (± S.E.M.)” value ([3]; 4 Hour Pretreatment, 0.1 mg applied topically in 25 μl acetone) of the same compound?
**A.** 26 ± 9%

**Q.** What about the “% Inhibition (± S.E.M.)” value ([3]; 4 Hour Pretreatment, 0.2 mg applied topically in 25 μl acetone) of the same compound?
**A.** 31 ± 12%

**Q.** And the “% Inhibition (± S.E.M.)” value ([3]; 4 Hour Pretreatment, 0.5 mg applied topically in 25 μl acetone)?
**A.** 28 ± 9%

**Q.** And the “% Inhibition (± S.E.M.)” value ([3]; 4 Hour Pretreatment, 1.0 mg applied topically in 25 μl acetone)?
**A.** 37 ± 7%

**Q.** And the “% Inhibition (± S.E.M.)” value ([3]; 4 Hour Pretreatment, 2.0 mg applied topically in 25 μl acetone)?
**A.** 68 ± 7%

**Q.** And the inhibition of edema ([3]; amounts up to 2 mg, both 0.5 and 4 hours prior to arachidonic acid application)?
**A.** significant inhibition of edema
